The record followed here is patent US20170239323A1, “ORITAVANCIN FORMULATIONS” (The Medicines Company, priority 2016, published 2017).

This series in a line: Reconstitution of Orbactiv 400 mg vial with aqueous HPCD: time to dissolve, pH and visual observation on storage. The following applies: for visible precipitation: over 24 hours; for time to go into solution (clear, colorless solution): 57.14 mg/mL; for pH: oritavancin 50 mg/mL. In kind it is physicochemical. The protocol: Reconstituting Orbactiv 400 mg (Oritavancin) with 50% HPCD. 5.915 g of HPCD was dissolved in 11.83 mL of water to make a 50 wt % aqueous solution. 8 mL of the 50% HPCD solution was added to a 400 mg vial of Orbactiv for a target oritavancin concentration of 50 mg/mL. […] The pH was measured and the solution was stored at room temperature, protected from light, and observed over 24 hours for signs of precipitation (Table 1).
Reconstituting Orbactiv 400 mg (Oritavancin) in 20% w/v HPCD aqueous solution. 3.095 g HPCD was dissolved in 15.474 mL water to make a 20% w/v solution (pH=6.05). 8 mL of the 20% w/v HPCD solution was added to a 400 mg vial of Orbactiv for a target oritavancin concentration of 50 mg/mL. […] The pH was measured and the solution was stored at room temperature, protected from light, and observed over 24 hours for signs of precipitation (Table 3).
Reconstituting Orbactiv 400 mg (Oritavancin) in 50% w/v HPCD aqueous solution, adjusting pH then diluting in saline. 6.269 g of HPCD was dissolved in 12.538 mL of water to make a 50% w/v solution (pH=7.23). Seven (7) mL of the 50% w/v solution was added to a 400 mg vial of Orbactiv for a target oritavancin concentration of 57.14 mg/mL. […] A 2 mL aliquot of 57.14 mg/mL was removed from the vial and placed in a small glass vial. The pH was adjusted to 6.5 using 1N NaOH. NaOH was added to the oritavancin solution in 5 μL increments and vortexed. Visual observations and pH were recorded (Table 6).
Reconstituting Orbactiv 400 mg (Oritavancin) in 50% w/v aqueous HPCD, adjusting pH then diluting in saline. 6.112 g of HPCD was dissolved in 12.224 mL of water to make a 50% w/v solution (pH=6.74). Seven (7) mL of the 50% w/v HPCD solution was added to a 400 mg vial of Orbactiv for a target oritavancin concentration of 57.14 mg/mL. […] A 3 mL aliquot of 57.14 mg/mL was removed from the vial and placed in a small glass vial. The pH was adjusted to 7 using 1N NaOH. NaOH was added to the oritavancin solution in 5 μL increments and vortexed. Visual observations and pH were recorded (Table 8).
Reconstituting Orbactiv 400 mg (Oritavancin) in 20% w/v aqueous HPCD, adjusting pH then diluting in saline. 3.555 g of HPCD was dissolved in 17.775 mL of water to make a 20% w/v solution (pH=6.88). Seven (7) mL of the 20% w/v HPCD solution was added to a 400 mg vial of Orbactiv for a target oritavancin concentration of 57.14 mg/mL. […] A 3 mL aliquot of 57.14 mg/mL was removed from the vial and placed in a small glass vial. The pH was adjusted to 7 using 1N NaOH. NaOH was added to the oritavancin solution in 5 μL increments and vortexed. Visual observations and pH were recorded. (Table 10).
Reconstituting Orbactiv 400 mg (Oritavancin) in 20% w/v aqueous HPCD then diluting in Hank's Balanced Salt Solution (HBSS). 2.641 g of HPCD was dissolved in 13.205 mL of water to make a 20% w/v solution (pH=6.70). Eight (8) mL of the 20% w/v solution was added to a 400 mg vial of Orbactiv for a target oritavancin concentration of 50 mg/mL. […] A 1.5 mL aliquot of 50 mg/mL was removed from the vial and placed in a small glass vial and pH measured. Diluted 2 mL of 50 mg/mL oritavancin solution in 8 mL of HBSS. Visual observations and pH were recorded. (Table 12).

With `CN[C@H](CC(C)C)C(=O)N[C@H]1C(=O)N[C@@H](CC(N)=O)C(=O)N[C@H]2C(=O)N[C@H]3C(=O)N[C@H](C(=O)N[C@H](C(=O)O)c4cc(O)cc(O)c4-c4cc3ccc4O)[C@H](O[C@H]3C[C@](C)(N)[C@@H](O)[C@H](C)O3)c3ccc(c(Cl)c3)Oc3cc2cc(c3O[C@@H]2O[C@H](CO)[C@@H](O)[C@H](O)[C@H]2O[C@H]2C[C@](C)(NCc3ccc(-c4ccc(Cl)cc4)cc3)[C@@H](O)[C@H](C)O2)Oc2ccc(cc2Cl)[C@H]1O` [Oritavancin], the visible precipitation entry runs as follows: (50 mg/mL in 20% w/v HPCD solution) “did not show any sign of visible precipitation”; (50 mg/mL in 50% HPCD aqueous solution) “did not show any sign of visible precipitation”. The “time to go into solution (clear, colorless solution)” value is, setting by setting: (400 mg vial + 7 mL 20% w/v HPCD solution) at most 5 min; (400 mg vial + 7 mL 20% w/v HPCD solution, listed as Orbactiv) 5 min; (400 mg vial + 7 mL 50% w/v HPCD solution) at most 5 min; (400 mg vial + 7 mL 50% w/v HPCD solution, listed as Orbactiv) 5 min. Further, the pH came out at 3.85 (reconstituted with 20% w/v aqueous HPCD, RT, 0 hr); 4.17 (reconstituted with 20% w/v aqueous HPCD, RT, 24 hr); 3.94 (reconstituted with 50% w/v HPCD in water, 0 hr).
